In the NIST ThermoML archive (doi:10.1016/j.tca.2006.07.010):
Numbers after ± are expanded uncertainties.

Experiments:
[1] = Crystal; for mass density: 298 K, 101.33 kPa, Pycnometric method; for Triple point temperature: DTA
[2] = Molar enthalpy of transition or fusion; details: Crystal; DSC
[3] = molar heat capacity at constant pressure; details: 298 K; 101.33 kPa; Crystal; Small sample (50 mg) DSC

Structure (SMILES) | mass density [1] | Triple point temperature [1] | Molar enthalpy of transition or fusion [2] | molar heat capacity at constant pressure [3]
CC(C)c1ccc2occ(C=O)c(=O)c2c1 [3-formyl-6-isopropylchromone] | 1170 ± 10 kg/m3 | 371.47 ± 0.39 K | 5.76 ± 0.198 kcal/mol | 222.5 ± 4.5 J/K/mol
Cc1ccc2occ(C=O)c(=O)c2c1 [3-formyl-6-methylchromone] | 1470 ± 10 kg/m3 | 444.45 ± 0.39 K | 6.41 ± 0.189 kcal/mol | 178.96 ± 3.6 J/K/mol
O=Cc1coc2ccccc2c1=O [3-formylchromone] | 1700 ± 10 kg/m3 | 424.89 ± 0.39 K | 6.06 ± 0.136 kcal/mol | 121.04 ± 2.4 J/K/mol
